# According to patent publication US20230405003A1, “APPLICATION OF THYMIDINE DERIVATIVE IN PREPARATION OF DRUGS” (ONQUALITY PHARMACEUTICALS CHINA LTD., priority 2020, published 2023):
# Read-outs that look alike come from different tables or passages of the source.
# Assays:
# HaCaT cells = experiment: Relief of 5-FU proliferative toxicity to HaCaT cells (CCK-8 cell survival); assay type: cell-based; conditions: for activation at 10 µM: compound 10 μM; for activation at 100 µM: compound 100 μM; for activation at 500 µM: compound 500 μM; for activation at 1000 µM: compound 1000 μM; for activation at 1 µM: compound 1 μM; for Cell Survival Rate (increased percentage of cell survival compared with the Group of 5-FU): 5-Fu 20 μM, HaCaT cells
# Summary of the method: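 HaCaT keratinocytes (5000–10000/well) cultured 24 h, then exposed 48 h to 5-FU alone or with thymidine derivative, or thymidine plus uridine derivative mix, versus solvent-matched blanks. Survival by CCK-8; value is % increase in survival over 5-FU alone, t-test.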
# [1] = tested on: hand-foot syndrome caused by capecitabine in SD rats; experiment: Rat model of hand-foot syndrome caused by capecitabine, gel application; assay type: in vivo; conditions: capecitabine 4000 mg/kg once daily, 40 days; for inhibition in vivo at 3 % / inhibition in vivo at 0.1 % / inhibition in vivo at 0.5 % / inhibition in vivo at 1 % / inhibition in vivo at 5 %: Rattus norvegicus, topical, 960 h; for inhibition in vivo at 3 % / inhibition in vivo at 0.1 % / inhibition in vivo at 0.5 % / inhibition in vivo at 1 % / inhibition in vivo at 5 % / Control Rate Forepaws / Control Rate Hindpaws: rats; for Control Rate: SD rats
# Procedure: A rat animal model was established. 6-week aged female SD rats were administered with capecitabine by daily gavage. The degree of hand-foot syndrome in paws is similar, and there was no difference between the left and right paws. Similar to the human body, rats developed hand-foot syndrome after oral administration of capecitabine. The causes of the two are the same, and the disorder is also very similar. Therefore, rats are very good animal models for simulating the hand-foot syndrome caused by capecitabine.
# After SD rats were fed and adapted for one week (about 200 g), the rats were divided into groups, with 10 rats in each group. Then, the rats were subject to gavage administration. Capecitabine was dissolved in a 1:1 mixed solution of castor oil and ethanol and diluted for three times with PBS buffer. After gavage, the rats were fixed with a fixed cylinder, and a gel of thymidine derivative (or a compounded gel of thymidine derivative and uridine derivative) was applied to double hind paws (about 1 cm*3 cm) of the rats in group of administration (the types and concentrations are shown in Table 4), and a blank gel was applied to the group of blank (as a blank control). After approximately 4 hours of application, the rats were released after 4 hours, wiped with clean water to remove any residual drug at the application site, and allowed back to the cage. The thymidine derivative gel (or the compounded gel of thymidine derivative and uridine derivative) was administered with gavage every day. The gavage and application tests are repeated daily until the group of blank has developed obvious hand-foot syndrome.
# Table 4 lists the combinations of animal experiments of capecitabine and the thymidine derivative gel (or the compounded gel of thymidine derivative and uridine derivative) and the corresponding experimental results (wherein, the data in the column of control rate=the occurrence rate of hand-foot syndrome in group of blank—the occurrence rate of hand-foot syndrome in group of administration). […]
# [2] = tested on: pain in capecitabine hand-foot syndrome rats; experiment: Pain of hand-foot syndrome, mechanical sensitivity in rats (von Frey); assay type: in vivo, rat; conditions: capecitabine 4000 mg/kg hand-foot syndrome rats; thymidine derivative 3%
# Procedure: According to the method of Examples 91-115, after administration of a thymidine derivative (at a concentration of 3%) and co-administration of a thymidine derivative (at a concentration of 1%) with a uridine derivative (at a concentration of 3%) to rat hand-foot syndrome models constructed from 4000 mg/kg of capecitabine for a period of time, pain analysis was performed on the rats, and the pain assessment model was mechanical sensitivity in rats (von Frey). The experimental steps were as follows: first, the rats were allowed to adapt in the room for 1 hour, then the rats were placed in an observation box with a metal mesh floor, and the mice were allowed to stay in the box for 20 minutes to adapt to the experimental platform. Next, a von Frey device was used to detect paw pain by stimulating the surface of the rat's palm with specially designed cilia to detect the mechanical sensitivity of the animal at strength of 0.4 g, 0.8 g, 1.5 g, 2.5 g, 4 g, 8 g, 10 g and 20 g (IITC Life Science, Woodland Hills, 2390 series). […] The rat movement response was considered to be a vague response, in which case the stimulation experiment was repeated.
# [3] = Homo sapiens, HaCaT, increase vs Group of 5-FU, 5-FU 20 μM, 48 h, read-out: Cell Survival Rate
# [4] = gel 3 wt%, read-out: Control Rate Forepaws
# [5] = gel 3 wt%, read-out: Control Rate Hindpaws
# [6] = selected compound final concentration 1.6 μM
# [7] = selected compound final concentration 3.13 μM
# [8] = selected compound final concentration 6.25 μM
# [9] = selected compound final concentration 12.5 μM
# [10] = selected compound final concentration 25 μM
# [11] = selected compound final concentration 50 μM
Compound,activation at 10 µM (HaCaT cells; [3]),activation at 100 µM (HaCaT cells; [3]),activation at 500 µM (HaCaT cells; [3]),activation at 1000 µM (HaCaT cells; [3]),"inhibition in vivo at 3 % [1, 4]","inhibition in vivo at 3 % [1, 5]",pain in rats (von Frey mechanical sensitivity) [2],Cell Survival Rate (increased percentage of cell survival compared with the Group of 5-FU) (HaCaT cells; [7]),Cell Survival Rate (increased percentage of cell survival compared with the Group of 5-FU) (HaCaT cells; [8]),Cell Survival Rate (increased percentage of cell survival compared with the Group of 5-FU) (HaCaT cells; [9]),Cell Survival Rate (increased percentage of cell survival compared with the Group of 5-FU) (HaCaT cells; [10]),Cell Survival Rate (increased percentage of cell survival compared with the Group of 5-FU) (HaCaT cells; [11]),other results
CC(=O)OCC1OC(n2cc(C)c(=O)[nH]c2=O)CC1OC(C)=O (centres unmarked) [T1],10 to 16%,31 to 37%,36 to 41%,35 to 42%,57.1%,71.4%,did not significantly improve pain in rats,,,,,,"activation at 5 µM (HaCaT cells; Homo sapiens, HaCaT, increase vs Group of 5-FU, 5-FU 20 μM, compound 5 μM, 48 h, read-out: Cell Survival Rate): 1 to 6%; activation at 50 µM (HaCaT cells; Homo sapiens, HaCaT, increase vs Group of 5-FU, 5-FU 20 μM, compound 50 μM, 48 h, read-out: Cell Survival Rate): 21 to 26%; activation at 200 µM (HaCaT cells; Homo sapiens, HaCaT, increase vs Group of 5-FU, 5-FU 20 μM, compound 200 μM, 48 h, read-out: Cell Survival Rate): 42 to 48%; activation at 1500 µM (HaCaT cells; Homo sapiens, HaCaT, increase vs Group of 5-FU, 5-FU 20 μM, compound 1500 μM, 48 h, read-out: Cell Survival Rate): 29 to 33%; activation at 3000 µM (HaCaT cells; Homo sapiens, HaCaT, increase vs Group of 5-FU, 5-FU 20 μM, compound 3000 μM, 48 h, read-out: Cell Survival Rate): 17 to 23%; Control Rate ([1]; gel 0.5 wt% on hind paws): 20.00%; Control Rate ([1]; gel 2 wt% on hind paws): 27.50%; Control Rate ([1]; gel 5 wt% on hind paws): 56.67%"
CC(=O)O[C@H]1C[C@H](n2cc(C)c(=O)[nH]c2=O)O[C@@H]1CO [T2],35 to 45%,70 to 80%,75 to 85%,60 to 70%,,,,,,,,,activation at 1 µM (HaCaT cells; [3]): 14 to 18%; Control Rate ([1]; gel 1 wt% on hind paws): 23.33%
CC(=O)OC[C@H]1O[C@@H](n2cc(C)c(=O)[nH]c2=O)C[C@@H]1O [T3],30 to 38%,80 to 86%,69 to 75%,58 to 65%,,,,,,,,,activation at 1 µM (HaCaT cells; [3]): 13 to 18%; Control Rate ([1]; gel 1 wt% on hind paws): 27.50%
COc1ccc2cc([C@H](C)C(=O)OC[C@H]3O[C@@H](n4cc(C)c(=O)[nH]c4=O)C[C@@H]3O)ccc2c1 [T25],,,,,62.5%,75%,could significantly improve pain in rats,,,,,,"inhibition in vivo at 0.1 % ([1]; gel 0.10 wt%, read-out: Control Rate Forepaws): 22.2%; inhibition in vivo at 0.1 % ([1]; gel 0.10 wt%, read-out: Control Rate Hindpaws): 33.3%; inhibition in vivo at 0.5 % ([1]; gel 0.50 wt%, read-out: Control Rate Forepaws): 22.2%; inhibition in vivo at 0.5 % ([1]; gel 0.50 wt%, read-out: Control Rate Hindpaws): 44.4%; inhibition in vivo at 1 % ([1]; gel 1 wt%, read-out: Control Rate Forepaws): 37.5%; inhibition in vivo at 1 % ([1]; gel 1 wt%, read-out: Control Rate Hindpaws): 50%; inhibition in vivo at 5 % ([1]; gel 5 wt%, read-out: Control Rate Forepaws): 57.1%; inhibition in vivo at 5 % ([1]; gel 5 wt%, read-out: Control Rate Hindpaws): 71.4%"
"Cc1cn([C@H]2C[C@H](O)[C@@H](COC(=O)C(C)c3cccc(Oc4ccccc4)c3)O2)c(=O)[nH]c1=O (stereo partly drawn) [T27, ((2R,3S, 5R)-3-hydroxyl-5-(5-methyl-2,4-dioxy-3,4-dihydropyrimidin-1(2H)-yl)tetrahydrofuran-2-yl)2-(3-phenoxyphenyl)propionate Methyl]",,,,,,,could significantly improve pain in rats,51%-58%,54%-61%,51%-59%,49%-57%,46%-53%,Cell Survival Rate (increased percentage of cell survival compared with the Group of 5-FU) (HaCaT cells; [6]): 39%-45%; Control Rate Forepaws ([1]; gel 0.10 wt%): 22.22%; Control Rate Hindpaws ([1]; gel 0.10 wt%): 44.44%; Control Rate Forepaws ([1]; gel 0.50 wt%): 33.33%; Control Rate Hindpaws ([1]; gel 0.50 wt%): 33.33%; Control Rate Forepaws ([1]; gel 1 wt%): 25%; Control Rate Hindpaws ([1]; gel 1 wt%): 50%; Control Rate Forepaws ([1]; gel 3 wt%): 57.14%; Control Rate Hindpaws ([1]; gel 3 wt%): 71.43%; Control Rate Forepaws ([1]; gel 5 wt%): 50%; Control Rate Hindpaws ([1]; gel 5 wt%): 75.00%
Cc1cn([C@H]2C[C@H](O)[C@@H](COC(=O)[C@H](C)c3ccc(CC(C)C)cc3)O2)c(=O)[nH]c1=O [T32],,,,,37.5%,62.5%,could significantly improve pain in rats,35%-41%,29%-36%,46%-52%,53%-60%,59%-66%,Cell Survival Rate (increased percentage of cell survival compared with the Group of 5-FU) (HaCaT cells; selected compound final concentration 100 μM): 78%-85%
Cc1ccc(C(=O)c2ccc(CC(=O)OC[C@H]3O[C@@H](n4cc(C)c(=O)[nH]c4=O)C[C@@H]3O)n2C)cc1 [T36],,,,,,,could significantly improve pain in rats,27%-35%,38%-46%,52%-60%,53%-61%,49%-57%,Control Rate Forepaws ([1]; gel 1 wt%): 28.57%; Control Rate Hindpaws ([1]; gel 1 wt%): 42.86%; Control Rate Forepaws ([1]; gel 3 wt%): 44.44%; Control Rate Hindpaws ([1]; gel 3 wt%): 44.44%
CC1=C(CC(=O)OC[C@H]2O[C@@H](n3cc(C)c(=O)[nH]c3=O)C[C@@H]2O)c2cc(F)ccc2/C1=C\c1ccc([S+](C)[O-])cc1 (some centres unmarked) [T40],,,,,44.4%,66.7%,,45%-52%,47%-56%,49%-54%,58%-65%,48%-55%,Cell Survival Rate (increased percentage of cell survival compared with the Group of 5-FU) (HaCaT cells; selected compound final concentration 0.8 μM): 42%-50%; Cell Survival Rate (increased percentage of cell survival compared with the Group of 5-FU) (HaCaT cells; [6]): 57%-65%
